Here are results for 22 substances from US20040102622A1, “Modulation of hepatocyte growth factor receptor expression” (Isis Pharmaceuticals Inc., priority 2002, published 2004).

This series deals with human hepatocyte growth factor receptor mRNA.
As for “ISIS 209537: 2′-MOE gapmer, phosphorothioate backbone, sequence agaggtttatctgccaaaac (antisense AGAGGTTTATCTGCCAAAAC; all phosphorothioate, sugars by position and methylation of C not given here; 2'-MOE gapmer)”, the “inhibition of human hepatocyte growth factor receptor expression” value (shortened to “inhibition”) is given as “at least 35%”.

Regarding “ISIS 209546: 2′-MOE gapmer, phosphorothioate backbone, sequence aattcaagttttggactcca (antisense AATTCAAGTTTTGGACTCCA; all phosphorothioate, sugars by position and methylation of C not given here; 2'-MOE gapmer)”, the “inhibition” value is on record as “at least 35%”.

Consider “ISIS 209535: 2′-MOE gapmer, phosphorothioate backbone, sequence ataacaatacaagtcctatg (antisense ATAACAATACAAGTCCTATG; all phosphorothioate, sugars by position and methylation of C not given here; 2'-MOE gapmer)”, for which the “inhibition” value is reported as “at least 35%”.

For “ISIS 209541: 2′-MOE gapmer, phosphorothioate backbone, sequence accaagtactgtaagagagg (antisense ACCAAGTACTGTAAGAGAGG; all phosphorothioate, sugars by position and methylation of C not given here; 2'-MOE gapmer)”, the “inhibition” value was “at least 35%”.

With “ISIS 209550: 2′-MOE gapmer, phosphorothioate backbone, sequence tgcgcgctgtagtcccagct (antisense TGCGCGCTGTAGTCCCAGCT; all phosphorothioate, sugars by position and methylation of C not given here; 2'-MOE gapmer)”, the “inhibition” value is recorded as “at least 35%”.

In the case of “ISIS 155109: 2′-MOE gapmer, phosphorothioate backbone, sequence agctcgctgttcaatttcag (antisense AGCTCGCTGTTCAATTTCAG; all phosphorothioate, sugars by position and methylation of C not given here; 2'-MOE gapmer)”, the “inhibition” value is on record as “at least 35%”.

On to “ISIS 155103: 2′-MOE gapmer, phosphorothioate backbone, sequence tgggaagctgatacttcata (antisense TGGGAAGCTGATACTTCATA; all phosphorothioate, sugars by position and methylation of C not given here; 2'-MOE gapmer)”, for which the “inhibition” value is given as “at least 35%”.

On to “ISIS 209549: 2′-MOE gapmer, phosphorothioate backbone, sequence cctgagcattactatctctt (antisense CCTGAGCATTACTATCTCTT; all phosphorothioate, sugars by position and methylation of C not given here; 2'-MOE gapmer)”, for which the “inhibition” value is on record as “at least 35%”.

For “ISIS 155123: 2′-MOE gapmer, phosphorothioate backbone, sequence gcaaagctgtggtaaactct (antisense GCAAAGCTGTGGTAAACTCT; all phosphorothioate, sugars by position and methylation of C not given here; 2'-MOE gapmer)”, the “inhibition” value is “at least 35%”.

As for “ISIS 155097: 2′-MOE gapmer, phosphorothioate backbone, sequence cctcggtcagaaattgggaa (antisense CCTCGGTCAGAAATTGGGAA; all phosphorothioate, sugars by position and methylation of C not given here; 2'-MOE gapmer)”, the “inhibition” value was “at least 35%”.

“ISIS 155111: 2′-MOE gapmer, phosphorothioate backbone, sequence gttcggcagaatctggcttg (antisense GTTCGGCAGAATCTGGCTTG; all phosphorothioate, sugars by position and methylation of C not given here; 2'-MOE gapmer)”: the “inhibition” value is recorded as “at least 35%”.

For the substance “ISIS 155101: 2′-MOE gapmer, phosphorothioate backbone, sequence ttcagccacaggaaaaaccc (antisense TTCAGCCACAGGAAAAACCC; all phosphorothioate, sugars by position and methylation of C not given here; 2'-MOE gapmer)”, the “inhibition” value was “at least 35%”.

On to “ISIS 155133: 2′-MOE gapmer, phosphorothioate backbone, sequence aaaccatttctgtagttggg (antisense AAACCATTTCTGTAGTTGGG; all phosphorothioate, sugars by position and methylation of C not given here; 2'-MOE gapmer)”, for which the “inhibition” value is “at least 35%”.

As to “ISIS 155122: 2′-MOE gapmer, phosphorothioate backbone, sequence aagcctatccaaatgaggag (antisense AAGCCTATCCAAATGAGGAG; all phosphorothioate, sugars by position and methylation of C not given here; 2'-MOE gapmer)”, the “inhibition” value was “at least 35%”.

“ISIS 155130: 2′-MOE gapmer, phosphorothioate backbone, sequence tctctgaactcaggtaaaac (antisense TCTCTGAACTCAGGTAAAAC; all phosphorothioate, sugars by position and methylation of C not given here; 2'-MOE gapmer)”: the “inhibition” value is given as “at least 35%”.

Turning to “ISIS 209524: 2′-MOE gapmer, phosphorothioate backbone, sequence ctcatgtagaatgacattct (antisense CTCATGTAGAATGACATTCT; all phosphorothioate, sugars by position and methylation of C not given here; 2'-MOE gapmer)”, the “inhibition” value is “at least 35%”.

Turning to “ISIS 155117: 2′-MOE gapmer, phosphorothioate backbone, sequence gtagattgcaggcagacaga (antisense GTAGATTGCAGGCAGACAGA; all phosphorothioate, sugars by position and methylation of C not given here; 2'-MOE gapmer)”, the “inhibition” value is reported as “at least 35%”.

Regarding “ISIS 155126: 2′-MOE gapmer, phosphorothioate backbone, sequence ctgtgcatttcaatgtattc (antisense CTGTGCATTTCAATGTATTC; all phosphorothioate, sugars by position and methylation of C not given here; 2'-MOE gapmer)”, the “inhibition” value was “at least 35%”.

Regarding “ISIS 155129: 2′-MOE gapmer, phosphorothioate backbone, sequence gattgggtccgtaaaaatgc (antisense GATTGGGTCCGTAAAAATGC; all phosphorothioate, sugars by position and methylation of C not given here; 2'-MOE gapmer)”, the “inhibition” value is “at least 35%”.

For “ISIS 155116: 2′-MOE gapmer, phosphorothioate backbone, sequence aaatctttcatgatgattcc (antisense AAATCTTTCATGATGATTCC; all phosphorothioate, sugars by position and methylation of C not given here; 2'-MOE gapmer)”, the “inhibition” value is “at least 35%”.

Consider “ISIS 209529: 2′-MOE gapmer, phosphorothioate backbone, sequence cccagccacatatggtcagc (antisense CCCAGCCACATATGGTCAGC; all phosphorothioate, sugars by position and methylation of C not given here; 2'-MOE gapmer)”, for which the “inhibition” value was “at least 35%”.

As for “ISIS 155115: 2′-MOE gapmer, phosphorothioate backbone, sequence agttccttcctgcttcatgc (antisense AGTTCCTTCCTGCTTCATGC; all phosphorothioate, sugars by position and methylation of C not given here; 2'-MOE gapmer)”, the “inhibition” value is given as “at least 35%”.
